Laboratory results: PMC11160566 (ACS infectious diseases, 2024)

Tests used:
GES-5 carbapenemase [1] = target: T1, GES-5 carbapenemase (Klebsiella pneumoniae, UniProt Q09HD0); assay: X-ray crystal structure of acyl-enzyme; type: binding
GES-5 carbapenemase [2] = target: T1, GES-5 carbapenemase; assay: reporter substrate hydrolysis, absorbance at […] nm; type: biochemical

T1 sequence (Q09HD0 19-287): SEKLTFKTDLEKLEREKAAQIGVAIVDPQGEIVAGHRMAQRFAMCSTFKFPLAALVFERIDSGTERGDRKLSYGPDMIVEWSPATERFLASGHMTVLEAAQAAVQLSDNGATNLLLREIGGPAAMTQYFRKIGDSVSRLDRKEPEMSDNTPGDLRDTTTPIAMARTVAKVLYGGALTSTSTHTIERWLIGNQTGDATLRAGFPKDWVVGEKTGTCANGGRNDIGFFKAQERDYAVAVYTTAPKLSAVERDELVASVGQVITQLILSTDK

C[C@@H](O)[C@H]1C(=O)N2C(C(=O)O)=C(S[C@@H]3CN[C@H](C(=O)N(C)C)C3)[C@H](C)[C@H]12 [MEM, meropenem]
X-ray crystal structure of acyl-enzyme (1.62 Å) (GES-5 carbapenemase [1]): The 3D structures of the acyl-enzyme complexes of GES-5-meropenem and GES-5-NA-1-157 were determined by X-ray crystallography

O=C(Cc1cccs1)N[C@@H]1C(=O)N2C(C(=O)O)=C(/C=C/c3ccc([N+](=O)[O-])cc3[N+](=O)[O-])CS[C@H]12 [nitrocefin]
reporter substrate hydrolysis, absorbance at 500 nm (GES-5 carbapenemase [2]): The progress curves for nitrocefin hydrolysis by GES-5 in the presence of NA-1-157
